Measurements: patent publication US20090252816A1, “Inhalable Gaseous Medicament Based On Xenon And Nitrous Oxide” (AIR LIQUIDE SANTE (INRTERNATIONAL), priority 2003, published 2009)

What was measured:
[1] = system: sensitization to d-amphetamine; experiment: d-amphetamine sensitization protocol, locomotor activity in actimetry cages; type: in vivo, rat; details: for blocking of the sensitization process (locomotor activity in d-amphetamine test on D7): remainder oxygen, 3 h after each d-amphetamine injection D1-D3; for concentration necessary to block the sensitization process: d-amphetamine sensitization
Experimental: Male Sprague-Dawley rats weighing about 250 g were used in the experiments.
(§1) 15 groups of animals (of 7 or 8 animals each) were used, including 10 groups during the actual sensitization studies and 5 other groups during the histological studies of the neurons of the posterior and retrosplenial cingulate cortices.
The animals were injected intraperitoneally (i.p.) for 3 consecutive days from D1 to D3 with d-amphetamine (Amph; 1 mg/ml/kg) or, depending on the case, with a saline solution (1 ml/kg) for the control animals.
After each injection, the rats were immediately placed for 3 hours in a closed chamber, 100 liters in volume, flushed in dynamic regime with a constant flow rate of 5 l.min^−1, either with air (group 1: saline; group 2: Amph), or with 50% by volume of nitrous oxide (group 3: saline; group 4: Amph) or 75% (group 5: saline; group 6: Amph), or with 50% by volume of xenon (group 7: saline; group 8: Amph) or 75% (group 9: saline, group 10: Amph); the rest of the mixtures (remainder to 100%) being oxygen.
The locomotor activity of the animals of groups 1 to 10 was evaluated on D6, after an i.p. injection of a saline solution (1 ml/kg), and on D7 after an i.p. injection of d-amphetamine (1 mg/ml/kg). The locomotor activity of the animals in response to these injections was recorded using actimetry cages with photoelectric cells (Imétronic, Pessac. France).
The results obtained, given in the attached FIGS. 1 and 2, are expressed as the mean±standard error. The comparison of the groups was performed by means of nonparametric tests: Kruskall-Wallis analysis of variance, followed in the event of a significant result by the Mann-Whitney U test.

[2] = system: dopamine release in the nucleus accumbens septi; experiment: dopamine release in slices of nucleus accumbens septi by differential pulse voltammetry; type: cell-based, rat
Experimental: In addition, the preparation of the slices of nucleus accumbens septi was performed as follows. The animals were decapitated under mild anesthesia with halothane and the brain was then rapidly removed. Frontal sections of 300 μm, corresponding to an anteriority of +0.70/1.20 mm (according to Bregma, Paxinos and Watson, 1998) were taken using a chopper (Mickie Laboratory Engineering Company, Gomshall, Surrey, UK). The brain slices were placed for recovery in a buffered saline solution with a temperature of 3-4° C. for at least 1 hour before use for neurochemical study.
The measurement of the dopamine release was performed by the technique of normal differential pulse voltammetry using a single-fiber carbon electrode 10 μm in diameter and 250 μm long (CFN10-250; World Precision Instruments, Aston, Stevenage, Hertfordshire, UK). The electrochemical treatment enabling this type of electrode to be made sensitive to dopamine consisted in applying a continuous current of −1.5 V into a phosphate-buffered saline solution for 20 seconds, followed by a triangular current of +2.6 V also for 20 seconds on the working electrode (Brazell et al., 1987). Under these conditions, the dopaminergic signal appears at a potential of +100 mV.
The rat brain slices were then placed in an organ tank and infused with artificial cerebrospinal fluid having the composition: NaCl 118 mM, MgCl2 1.18 mM, KCl 4.9 mM, NaH2PO4 1.25 mM, CaCl2 1.25 mM, NaHCO3 3.6 mM, d-glucose 10 mM, HEPES 30 mM, pH 7.4, the temperature of which was maintained at 34±1° C. using a temperature controller (Delta 4 Culture Dish Controller, Bioptechs, Butler, Pa., USA). The electrode was placed under microscopic control (microscope EFN 600, Nikon, Paris, France), 100 μm from the anterior commissure, using an optical micrometer incorporated into the microscope, and then fully descended into the nucleus accumbens septi, at an angle of 45°, and connected to the Biopulse polarograph set in normal differential pulse voltammetry mode with the following parameters: scanning potential −150+350 mV; scanning time 0.4 s, scanning amplitude 4 mV, for a scanning speed of 10 mV.s^−1, 40 ms measuring pulse; 70 ms measuring prepulse; 30 mV measuring amplitude.
The dopaminergic hyperstimulation was induced by adding d-amphetamine to the infusion liquid. Medical air, nitrous oxide or xenon was dissolved, to saturation, before use in the infusion liquid, the pH of which was readjusted to 7.4.

[3] = system: posterior and retrosplenial cingulate cortices; experiment: histological study of neurons of the posterior and retrosplenial cingulate cortices after repeated gas exposure; type: in vivo, rat; details: for histological findings in posterior and retrosplenial cingulate cortices (neurotoxic effect): repeated exposure for 3 consecutive days
Experimental: as §1
In order to identify the possible neurotoxic potential of repeated exposure (3 hours per day […]) to nitrous oxide or to xenon on the posterior and retrosplenial cingulate cortices, 5 additional groups of animals were pretreated, according to a protocol identical to that defined above, by administration of a saline solution, and then exposed either to air (group 11) or to 50% or 75% nitrous oxide (groups 12 and 13) or to 50% or 75% xenon (groups 14 and 15).
To do this, after treatment, the animals were sacrificed on D8 by decapitation under general anesthesia with halothane, and the cranium was then immediately placed in a paraformaldehyde solution for one week. The brain was removed, coated with paraffin and sectioned into frontal slices of 4 μm mounted on gelatinized slides and stained with a hemalun-eosin-saffron solution. The posterior and retrosplenial cingulate cortices were analyzed using an optical microscope (×400).

[4] = system: N-methyl-D-aspartate glutamatergic receptors; details: in vitro; Franks et al. 1998, Jevtovic-Todorovic et al. 1998; cited from earlier work
[5] = system: glutamatergic receptors of AMPA type; details: Yakamura and Harris, 2000; cited from earlier work
weaning from alcohol = details: Lichtigfeld and Gillman 1989; cited from earlier work
[6] = toxicity threshold of xenon stated for man; details: in man
[7] = gas at 50 vol % or 75 vol % (summary statement)

Structure (SMILES)	locomotor activity in d-amphetamine test on D7, animals pretreated with d-amphetamine versus saline ([1]; d-amphetamine 1 mg/ml/kg i.p. D1-D3, air)	dopamine signal relative to the measured basal signal ([2]; d-amphetamine at 10^-5 M in infusion liquid)	locomotor activity in response to the saline test on D6 (long-term sedative effect) ([1]; gas at 50 vol % or 75 vol %, rats)	blocking of the sensitization process (locomotor activity in d-amphetamine test on D7) ([1]; gas at 50 vol %, rats)	blocking of the sensitization process (locomotor activity in d-amphetamine test on D7) ([1]; gas at 75 vol %, rats)	concentration necessary to block the sensitization process ([1]; rats)	gas effect on acute d-amphetamine test at D7 in rats pretreated with saline solution ([1]; saline-pretreated rats, nitrous oxide exposure D1-D3)	histological findings in posterior and retrosplenial cingulate cortices (neurotoxic effect) ([3]; gas at 75 vol %)	increase in dopamine release induced with d-amphetamine [2, 7]	increase in dopamine release induced with d-amphetamine ([2]; gas at 75% by volume in the infusion liquid, d-amphetamine 10^-5 M)	antagonist affinity for NMDA receptors [4]	effect on glutamatergic receptors of AMPA type [5]	effect on weaning from alcohol (weaning from alcohol)	response to d-amphetamine on D7 in animals pretreated with saline solution ([1]; gas at 75 vol %, versus air or xenon at 50 vol %)	histological findings in posterior and retrosplenial cingulate cortices (neurotoxic effect) ([3]; gas at 50 vol %)	toxicity threshold ([3]; in rats)	increase in dopamine release induced with d-amphetamine ([2]; gas at 50% by volume in the infusion liquid, d-amphetamine 10^-5 M)	toxicity threshold [6]
C[C@H](N)Cc1ccccc1.C[C@H](N)Cc1ccccc1.O=S(=O)(O)O [d-amphetamine, d-amphetamine sulfate]	significantly higher	significant increase																
[N-]=[N+]=O [nitrous oxide]			no significant difference	partial blocking	significant blocking	75 vol %	no “gas” effect	No similar effect	block the increase	significantly reduced	low affinity	no effect	slightly better than the placebo effect					
[Xe] [xenon]				blocking of the sensitization	blocking of the sensitization	50 vol %		generalized cytoplasmic clarification	block the increase		low affinity	no effect		significant increase	No similar effect	about 75%	significantly reduced	about 60%
